Laboratory results published in PMC10307885, “A Phase 1/2 trial of SRA737 (a Chk1 inhibitor) administered orally in patients with advanced cancer” (British Journal of Cancer, 2023).
Where “and” joins values, the source holds several entries; their conditions need not be identical. Equal entries are not always repeated. Where two headings read alike, the source gives them in different places.

Experiments:
[1] = Plasma SRA737 pharmacokinetics (LC-MS assay, non-compartmental methods); assay type: in vivo, human; conditions: for Cmax / AUC(0-t) / Tmax / Vd/F / half-life: human, oral; for AUC(0-t): read-out: AUC0-24; for Tmax / Vd/F / half-life: plasma
Protocol: Serial sampling of blood for PK assessment was conducted before and after dosing with single-agent SRA737 (9 time points over 48 h) on Day −7 to Day −4 and on Cycle 1 Day 22; in addition, samples were drawn pre-dose on Days 1, 8, and 15 of Cycle 1, and pre-dose on Day 1 of each subsequent cycle. Plasma SRA737 concentrations were quantified using a fully validated liquid chromatography-mass spectrometry assay with a lower limit of quantitation of 5 ng/ml as previously described.
Safety and response variables were summarized using descriptive statistics and PK parameters were determined using non-compartmental methods. A concentration-effect model was used to evaluate the relationship between plasma SRA737 concentrations and the mean change from baseline in QT interval corrected for heart rate using Fridericia’s formula (QTcF) in time-matched ECG measurements and PK samples collected on Day −7 to Day −4 and during Cycle 1.

[2] = system: patients with advanced cancer; conditions: in combination with low-dose gemcitabine; anogenital, cervical, high-grade serous ovarian, rectal and small cell lung cancer; cited from earlier work
[3] = 600 mg, repeat doses, N 7, plasma, mean ± standard deviation
[4] = 800 mg, repeat doses, N 31, plasma, mean ± standard deviation
[5] = 1000 mg, repeat doses, N 16, plasma, mean ± standard deviation
[6] = single SRA737 dose, at or above the dose level of 300 mg QD

## N#Cc1cnc(Nc2cc(NC[C@H]3CNCCO3)c(C(F)(F)F)cn2)cn1 [SRA737, (R)-5-((4-((morpholin-2-ylmethyl)amino)-5-(trifluoromethyl)pyridin-2-yl)amino)pyr azine-2-carbonitrile]
[1]; 600 mg vs 1000 mg dose levels
  Systemic exposure (Cmax and AUC) between dose levels: tended to be comparable
[1]; [3]
  CL/F: 26.9 ± 2.85 L/h
  Cmin: 230 ± 123 ng/mL
  Cmax: 2470 ± 328 ng/mL
  AUC(0-t): 22100 ± 2450 ng·h/mL
[1]; 800 mg QD and 1000 mg QD
  Exposure relative to minimum effective concentration extrapolated from preclinical models: exceeded the minimum effective concentration
[1]; 800 mg QD, repeat doses, N 31, plasma, mean ± standard deviation
  Cmin: 312 ng/mL and 312 ± 166 ng/mL
[1]; [4]
  CL/F: 38.0 ± 22.2 L/h
  Cmax: 2480 ± 679 ng/mL
  AUC(0-t): 24700 ± 8580 ng·h/mL
[1]; [5]
  CL/F: 39.7 ± 9.20 L/h
  Cmin: 499 ± 185 ng/mL
  Cmax: 2490 ± 666 ng/mL
  AUC(0-t): 27200 ± 9210 ng·h/mL
[1]; 600 mg, repeat doses on C1D8, C1D22, C2D8, C2D15 or C2D22, N 7, plasma, median (minimum-maximum), read-out: tmax
  Tmax: 2 h
[1]; 600 mg, repeat doses, N 7, plasma, mean ± standard deviation, read-out: Vd/F
  Vd/F: 320 ± 61.1 L
[1]; 600 mg, repeat doses, N 7, plasma, mean ± standard deviation, read-out: t½ (converted)
  half-life: 8.22 ± 1.27 h
[1]; 800 mg, repeat doses on C1D8, C1D22, C2D8, C2D15 or C2D22, N 31, plasma, median (minimum-maximum), read-out: tmax
  Tmax: 2 h
[1]; 800 mg, repeat doses, N 31, plasma, mean ± standard deviation, read-out: Vd/F
  Vd/F: 454 ± 299 L
[1]; 800 mg, repeat doses, N 31, plasma, mean ± standard deviation, read-out: t½ (converted)
  half-life: 8.25 ± 1.17 h
[1]; 1000 mg, repeat doses on C1D8, C1D22, C2D8, C2D15 or C2D22, N 16, plasma, median (minimum-maximum), read-out: tmax
  Tmax: 2 h
[1]; 1000 mg, repeat doses, N 16, plasma, mean ± standard deviation, read-out: Vd/F
  Vd/F: 477 ± 87 L
[1]; 1000 mg, repeat doses, N 16, plasma, mean ± standard deviation, read-out: t½ (converted)
  half-life: 8.45 ± 1.06 h
[1]; 1000 mg, repeated doses of 600, 800 and 1000 mg QD, read-out: Estimated elimination half-life (t½) values, range
  half-life: 6.23 to 10.4 h
[1]; 1000 mg, repeated doses of 600, 800 and 1000 mg QD, read-out: Tmax, generally occurred
  Tmax: 2 to 4 h
[1]; 1000 mg, repeated doses of 600, 800 and 1000 mg QD, read-out: Tmax, ranged
  Tmax: 1 to 6 h
[1]; 1000 mg, repeated doses of 600, 800 and 1000 mg QD, read-out: individual apparent volume of distribution (Vd/F) values, range
  Vd/F: 215 to 1590 L
[1]; [6]
  time plasma concentration of 100 nM (37.9 ng/mL) was achieved, all patients: at least 24 h
  time plasma concentration of 100 nM (37.9 ng/mL) was achieved, majority of patients: up to 48 h
[2]
  RECIST tumour responses: RECIST partial tumour responses were observed
